Measured values from patent US10577363B2, “Substituted piperidine compounds” (EPIZYME, INC., priority 2014, dated 2020).

Tests used:
SMYD3 [1] = target: T1, SMYD3 (Homo sapiens (Human), UniProt Q9H7B4); experiment: SMYD3 cell assay (Trimethyl-MEKK2 In-Cell Western in 293T/17 cells); format: cell-based
How it was run: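 In-Cell Western ratio of trimethyl-Lys260 MEKK2 to anti-flag signal; percent inhibition from DMSO and maximum-inhibition controls, IC50 by non-linear regression, triplicates.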

SMYD3 [2] = target: T1, SMYD3; experiment: SMYD3 biochemical assay (SPA, 3H-SAM methylation of MEKK2 protein substrate); conditions: read-out: SMYD3 Biochem IC50 (μM)*
How it was run: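 Full-length native human SMYD3 (E. coli-expressed, tags removed) preincubated with compounds 30 min at room temperature, then reaction started with 3H-SAM and GST-tagged MEKK2 protein in 25 mM Tris-Cl pH 8.0, 1 mM TCEP, 0.005% BSG, 0.005% Tween 20. Quenched with unlabelled SAM (100 uM final); 3H-MEKK2 counted by SPA.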

[3] = 293T/17 cells, read-out: SMYD3 Cell IC50 (μM)*

T1 sequence (Q9H7B4 whole entry): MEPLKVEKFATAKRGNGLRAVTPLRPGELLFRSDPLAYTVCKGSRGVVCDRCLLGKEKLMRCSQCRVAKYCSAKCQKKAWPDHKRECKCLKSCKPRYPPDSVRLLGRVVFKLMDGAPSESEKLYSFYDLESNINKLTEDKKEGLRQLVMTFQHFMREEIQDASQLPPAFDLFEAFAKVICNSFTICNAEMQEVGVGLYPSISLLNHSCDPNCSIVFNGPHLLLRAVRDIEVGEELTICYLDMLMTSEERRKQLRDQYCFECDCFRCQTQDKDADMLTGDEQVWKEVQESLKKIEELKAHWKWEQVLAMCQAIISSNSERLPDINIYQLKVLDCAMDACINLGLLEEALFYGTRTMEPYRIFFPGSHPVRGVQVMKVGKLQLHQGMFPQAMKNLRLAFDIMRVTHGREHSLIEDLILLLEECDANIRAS

NCCCC(=O)N1CC[C@@H](NC(=O)c2cc(C3CC3)on2)C[C@@H]1Cc1ccccc1 [compound 334, N-((2S,4R)-1-(4-aminobutanoyl)-2-benzylpiperidin-4-yl)-5-cyclopropylisoxazole-3-carboxamide]
IC50 (SMYD3 [1]; [3]): 33 µM
IC50 (SMYD3 [2]): 1.9 µM

NCCCC(=O)N1CC[C@H](NC(=O)c2cc(C3CC3)on2)C[C@H]1Cc1ccccc1 [compound 335, N-((2R,4S)-1-(4-aminobutanoyl)-2-benzylpiperidin-4-yl)-5-cyclopropylisoxazole-3-carboxamide]
IC50 (SMYD3 [1]; [3]): 19.6 µM
IC50 (SMYD3 [2]): 1.12 µM

NCCCC(=O)N1CC[C@H](NC(=O)c2cc(C3CC3)on2)C[C@@H]1Cc1ccccc1 [compound 336, N-((2S,4S)-1-(4-aminobutanoyl)-2-benzylpiperidin-4-yl)-5-cyclopropylisoxazole-3-carboxamide]
IC50 (SMYD3 [1]; [3]): 1.62 µM
IC50 (SMYD3 [2]): 0.0541 µM

C[C@H]1C[C@@H](NC(=O)c2cc(C3CC3)on2)CCN1C(=O)CC(C)(C)CN [compound 337, N-((2S,4S)-1-(4-amino-3,3-dimethylbutanoyl)-2-methylpiperidin-4-yl)-5-cyclopropylisoxazole-3-carboxamide]
IC50 (SMYD3 [1]; [3]): 13 µM
IC50 (SMYD3 [2]): 0.961 µM

C[C@H]1C[C@@H](NC(=O)c2cc(C3CC3)on2)CCN1C(=O)c1ccc2[nH]cnc2c1 [compound 340, N-((2S,4S)-1-(1H-benzo[d]imidazole-5-carbonyl)-2-methylpiperidin-4-yl)-5-cyclopropylisoxazole-3-carboxamide]
IC50 (SMYD3 [1]; [3]): > 40 µM
IC50 (SMYD3 [2]): > 10 µM

C[C@@H]1C[C@H](NC(=O)c2cc(C3CC3)on2)CCN1C(=O)c1ccc2[nH]cnc2c1 [compound 341, N-((2R,4R)-1-(1H-benzo[d]imidazole-5-carbonyl)-2-methylpiperidin-4-yl)-5-cyclopropylisoxazole-3-carboxamide]
IC50 (SMYD3 [1]; [3]): 6.01 µM
IC50 (SMYD3 [2]): 1 µM

O=C(N[C@@H]1CCN(C(=O)CC2CCNCC2)[C@H](Cc2ccccc2)C1)c1cc(C2CC2)on1 [compound 349, N-((2R,4R)-2-benzyl-1-(2-(piperidin-4-yl)acetyl)piperidin-4-yl)-5-cyclopropylisoxazole-3-carboxamide]
IC50 (SMYD3 [1]; [3]): > 40 µM
IC50 (SMYD3 [2]): 2.27 µM

C[C@@H]1C[C@H](NC(=O)c2cc(C3CC3)on2)CCN1S(=O)(=O)c1ccccc1 [compound 351, 5-cyclopropyl-N-((2R,4R)-2-methyl-1-(phenylsulfonyl)piperidin-4-yl)isoxazole-3-carboxamide]
IC50 (SMYD3 [1]; [3]): 7.83 µM
IC50 (SMYD3 [2]): 3.09 µM

C[C@H]1C[C@@H](NC(=O)c2cc(C3CC3)on2)CCN1S(=O)(=O)c1ccccc1 [compound 352, 5-cyclopropyl-N-((2S,4S)-2-methyl-1-(phenylsulfonyl)piperidin-4-yl)isoxazole-3-carboxamide]
IC50 (SMYD3 [1]; [3]): 0.996 µM
IC50 (SMYD3 [2]): 0.152 µM

C[C@@H]1C[C@H](NC(=O)c2cc(C3CC3)on2)CCN1S(=O)(=O)c1cccc(C#N)c1 [compound 354, N-((2R,4R)-1-((3-cyanophenyl)sulfonyl)-2-methylpiperidin-4-yl)-5-cyclopropylisoxazole-3-carboxamide]
IC50 (SMYD3 [1]; [3]): 5.65 µM
IC50 (SMYD3 [2]): 1.14 µM

C[C@H](C(=O)N1CC[C@H](NC(=O)c2cc(C3CC3)on2)C[C@@H]1C)C1CCNCC1 [compound 360, 5-cyclopropyl-N-((2S,4S)-2-methyl-1-((S)-2-(piperidin-4-yl)propanoyl)piperidin-4-yl)isoxazole-3-carboxamide]
IC50 (SMYD3 [1]; [3]): 8.28 µM
IC50 (SMYD3 [2]): 0.792 µM

C[C@@H](C(=O)N1CC[C@H](NC(=O)c2cc(C3CC3)on2)C[C@@H]1C)C1CCNCC1 [compound 361, 5-cyclopropyl-N-((2S,4S)-2-methyl-1-((R)-2-(piperidin-4-yl)propanoyl)piperidin-4-yl)isoxazole-3-carboxamide]
IC50 (SMYD3 [1]; [3]): 13.6 µM
IC50 (SMYD3 [2]): 1.36 µM

C[C@@H]1C[C@H](NC(=O)c2cc(C3CC3)on2)CCN1C(=O)c1cccc(C(C)(C)N)c1 [compound 365, N-((2R,4R)-1-(3-(2-aminopropan-2-yl)benzoyl)-2-methylpiperidin-4-yl)-5-cyclopropylisoxazole-3-carboxamide]
IC50 (SMYD3 [1]; [3]): 3.88 µM
IC50 (SMYD3 [2]): 0.454 µM

C[C@H]1C[C@@H](NC(=O)c2cc(C3CC3)on2)CCN1C(=O)c1cccc(C(C)(C)N)c1 [compound 367, N-((2S,4S)-1-(3-(2-aminopropan-2-yl)benzoyl)-2-methylpiperidin-4-yl)-5-cyclopropylisoxazole-3-carboxamide]
IC50 (SMYD3 [1]; [3]): 30.6 µM
IC50 (SMYD3 [2]): 4.29 µM

C[C@@H]1C[C@H](NC(=O)c2cc(C3CC3)on2)CCN1C(=O)c1ccc(C(C)(C)N)cc1 [compound 368, N-((2R,4R)-1-(4-(2-aminopropan-2-yl)benzoyl)-2-methylpiperidin-4-yl)-5-cyclopropylisoxazole-3-carboxamide]
IC50 (SMYD3 [1]; [3]): 1.04 µM
IC50 (SMYD3 [2]): 0.122 µM

C[C@H]1C[C@@H](NC(=O)c2cc(C3CC3)on2)CCN1C(=O)c1ccc(C(C)(C)N)cc1 [compound 370, N-((2S,4S)-1-(4-(2-aminopropan-2-yl)benzoyl)-2-methylpiperidin-4-yl)-5-cyclopropylisoxazole-3-carboxamide]
IC50 (SMYD3 [1]; [3]): > 40 µM
IC50 (SMYD3 [2]): 4.39 µM

C[C@H]1C[C@@H](NC(=O)c2cc(C3CC3)on2)CCN1C(=O)C1CCCC(CN)C1 (stereo partly drawn) [compound 373, N-((2S,4S)-1-(3-(aminomethyl)cyclohexane-1-carbonyl)-2-methylpiperidin-4-yl)-5-cyclopropylisoxazole-3-carboxamide]
IC50 (SMYD3 [1]; [3]): 29.8 µM
IC50 (SMYD3 [2]): 2.47 µM

CC(=O)Nc1ccc(S(=O)(=O)N2CC[C@@H](NC(=O)c3cc(C4CC4)on3)C[C@@H]2C)cc1 [compound 377, N-((2S,4R)-1-((4-acetamidophenyl)sulfonyl)-2-methylpiperidin-4-yl)-5-cyclopropylisoxazole-3-carboxamide]
IC50 (SMYD3 [1]; [3]): 27.6 µM
IC50 (SMYD3 [2]): > 10 µM

CC(=O)Nc1ccc(S(=O)(=O)N2CC[C@H](NC(=O)c3cc(C4CC4)on3)C[C@@H]2C)cc1 [compound 378, N-((2S,4S)-1-((4-acetamidophenyl)sulfonyl)-2-methylpiperidin-4-yl)-5-cyclopropylisoxazole-3-carboxamide]
IC50 (SMYD3 [1]; [3]): 2.74 µM
IC50 (SMYD3 [2]): 0.577 µM

CC(C)CN(C)c1ccc(S(=O)(=O)N2CC[C@H](NC(=O)c3cc(C4CC4)on3)C[C@@H]2C)cn1 [compound 381, 5-cyclopropyl-N-((2S,4S)-1-((6-(isobutyl(methyl)amino)pyridin-3-yl)sulfonyl)-2-methylpiperidin-4-yl)isoxazole-3-carboxamide]
IC50 (SMYD3 [1]; [3]): > 40 µM
IC50 (SMYD3 [2]): > 10 µM

C[C@H]1CN(S(=O)(=O)CCCN)CC[C@@H]1NC(=O)c1cc(C2CC2)on1 [compound 385, N-((3S,4S)-1-((3-aminopropyl)sulfonyl)-3-methylpiperidin-4-yl)-5-cyclopropylisoxazole-3-carboxamide]
IC50 (SMYD3 [1]): 1.23 µM
IC50 (SMYD3 [2]): 0.0882 µM

C[C@@H]1CN(S(=O)(=O)CCCN)CC[C@@H]1NC(=O)c1cc(C2CC2)on1 [compound 387, N-((3R,4S)-1-((3-aminopropyl)sulfonyl)-3-methylpiperidin-4-yl)-5-cyclopropylisoxazole-3-carboxamide]
IC50 (SMYD3 [1]): 0.788 µM
IC50 (SMYD3 [2]): 0.07 µM

NCCCS(=O)(=O)N1CC[C@@H](NC(=O)c2cc(C3CC3)on2)C[C@H]1Cc1ccccc1 [compound 390, N-((2R,4R)-1-((3-aminopropyl)sulfonyl)-2-benzylpiperidin-4-yl)-5-cyclopropylisoxazole-3-carboxamide]
IC50 (SMYD3 [1]; [3]): 2.97 µM
IC50 (SMYD3 [2]): 0.464 µM

C[C@H]1C[C@@H](NC(=O)c2cc(C3CC3)on2)CCN1C(=O)CC1(CN)CCCCC1 [compound 391, N-((2S,4S)-1-(2-(1-(aminomethyl)cyclohexyl)acetyl)-2-methylpiperidin-4-yl)-5-cyclopropylisoxazole-3-carboxamide]
IC50 (SMYD3 [1]; [3]): > 10 µM
IC50 (SMYD3 [2]): 5.72 µM

NCCS(=O)(=O)N1[C@@H]2CC[C@H]1C[C@H](NC(=O)c1cc(C3CC3)on1)C2 [compound 395, N-((1R,3s,5S)-8-((2-aminoethyl)sulfonyl)-8-azabicyclo[3.2.1]octan-3-yl)-5-cyclopropylisoxazole-3-carboxamide]
IC50 (SMYD3 [1]; [3]): 3.16 µM
IC50 (SMYD3 [2]): 0.611 µM

NCCS(=O)(=O)N1[C@@H]2CC[C@H]1C[C@@H](NC(=O)c1cc(C3CC3)on1)C2 [compound 396, N-((1R,3r,5S)-8-((2-aminoethyl)sulfonyl)-8-azabicyclo[3.2.1]octan-3-yl)-5-cyclopropylisoxazole-3-carboxamide]
IC50 (SMYD3 [1]; [3]): 0.375 µM
IC50 (SMYD3 [2]): 0.0417 µM

CC(=O)Nc1ccc(S(=O)(=O)N2CC[C@H](NC(=O)c3cc(C4CC4)on3)C[C@H]2C)cc1 [compound 397, N-((2R,4S)-1-((4-acetamidophenyl)sulfonyl)-2-methylpiperidin-4-yl)-5-cyclopropylisoxazole-3-carboxamide]
IC50 (SMYD3 [1]; [3]): > 10 µM
IC50 (SMYD3 [2]): > 10 µM

C[C@H]1C[C@@H](NC(=O)c2cc(C3CC3)on2)CCN1S(=O)(=O)c1cccc(C#N)c1 [compound 398, N-((2S,4S)-1-((3-cyanophenyl)sulfonyl)-2-methylpiperidin-4-yl)-5-cyclopropylisoxazole-3-carboxamide]
IC50 (SMYD3 [1]; [3]): 1.21 µM
IC50 (SMYD3 [2]): 0.212 µM

O=C(N[C@@H]1C[C@H]2CC[C@@H](C1)N2S(=O)(=O)c1ccccc1)c1cc(C2CC2)on1 [compound 399, 5-cyclopropyl-N-((1R,3s,5S)-8-(phenylsulfonyl)-8-azabicyclo[3.2.1]octan-3-yl)isoxazole-3-carboxamide]
IC50 (SMYD3 [1]; [3]): 2.87 µM
IC50 (SMYD3 [2]): 0.833 µM

O=C(N[C@H]1C[C@H]2CC[C@@H](C1)N2S(=O)(=O)c1ccccc1)c1cc(C2CC2)on1 [compound 400, 5-cyclopropyl-N-((1R,3r,5S)-8-(phenylsulfonyl)-8-azabicyclo[3.2.1]octan-3-yl)isoxazole-3-carboxamide]
IC50 (SMYD3 [1]; [3]): > 10 µM
IC50 (SMYD3 [2]): 4.13 µM
